Results: ChEMBL document CHEMBL1614632, “Trend analysis of a database of intravenous pharmacokinetic parameters in humans for 670 drug compounds” (Drug Metab Dispos, 2008)

Columns and labels:
clinical [1] = conditions: human, in vivo, iv
clinical [2] = conditions: human, in vivo, iv, CL
clinical [3] = conditions: human, in vivo, iv, Vdss
clinical [4] = conditions: human, in vivo, iv, t1/2

| SMILES | MRT (clinical [1]) | clearance (clinical [2]) | Vd (clinical [3]) | half-life (clinical [4]) |
| --- | --- | --- | --- | --- |
| CC1=C(C(=O)O)N2C(=O)[C@@H](NC(=O)[C@H](N)C3=CCC=CC3)[C@H]2SC1 [CEPHRADINE] | 1.1 h | 3.3 mL/min/kg | 0.21 L/kg | 51 min |
| CN(C)C(=O)Oc1cccc([N+](C)(C)C)c1.[Br-] [NEOSTIGMINE BROMIDE] | 1.3 h | 9.2 mL/min/kg | 0.74 L/kg | 78 min |
| NC(=O)NO [HYDROXYUREA] | 4.8 h | 1.5 mL/min/kg | 0.52 L/kg | 204 min |
| CCC(CC)COC(C(=O)OCCN(C)C)(c1ccccc1)c1ccccc1 [DENAVERINE] | 21 h | 5.7 mL/min/kg | 7.1 L/kg | 2040 min |
| CN[C@H](CC(C)C)C(=O)N[C@H]1C(=O)N[C@@H](CC(N)=O)C(=O)N[C@H]2C(=O)N[C@H]3C(=O)N[C@H](C(=O)N[C@H](C(=O)O)c4cc(O)cc(O)c4-c4cc3ccc4O)[C@H](O)c3ccc(c(Cl)c3)Oc3cc2cc(c3O[C@@H]2O[C@H](CO)[C@@H](O)[C@H](O)[C@H]2O[C@H]2C[C@](C)(N)[C@H](O)[C@H](C)O2)Oc2ccc(cc2Cl)[C@H]1O [VANCOMYCIN] | 6.9 h | 1.3 mL/min/kg | 0.54 L/kg | 390 min |
| C[C@@H]1CN(c2c(F)c(N)c3c(=O)c(C(=O)O)cn(C4CC4)c3c2F)C[C@H](C)N1 [SPARFLOXACIN] | 24 h | 2.7 mL/min/kg | 3.9 L/kg | 1200 min |
| NC[C@H]1O[C@H](O[C@H]2[C@H](O[C@@H]3O[C@H](CO)[C@@H](O)[C@H]3O)[C@@H](O)[C@H](N)C[C@@H]2N)[C@H](N)[C@@H](O)[C@@H]1O [RIBOSTAMYCIN] | 2.8 h | 1.5 mL/min/kg | 0.25 L/kg | 150 min |
| CN1CC[C@]23c4c5ccc(O)c4O[C@H]2[C@@H](O[C@@H]2O[C@H](C(=O)O)[C@@H](O)[C@H](O)[C@H]2O)C=C[C@H]3[C@H]1C5 [MORPHINE GLUCURONIDE] | 0.91 h | 2.2 mL/min/kg | 0.12 L/kg | 84 min |
| CCCCNc1cc(C(=O)O)cc(S(N)(=O)=O)c1Oc1ccccc1 [BUMETANIDE] | 1.1 h | 2.5 mL/min/kg | 0.16 L/kg | 72 min |
| NC(=O)CN1CC(O)CC1=O (stereo not given) [OXIRACETAM] | 4.9 h | 1.8 mL/min/kg | 0.55 L/kg | 450 min |
| CC(C)(O)c1ccccc1CC[C@@H](SCC1(CC(=O)O)CC1)c1cccc(/C=C/c2ccc3ccc(Cl)cc3n2)c1 [MONTELUKAST] | 3.8 h | 0.68 mL/min/kg | 0.15 L/kg | 300 min |
| O=C1Cc2cc(CCN3CCN(c4nsc5ccccc45)CC3)c(Cl)cc2N1 [ZIPRASIDONE] | 3.3 h | 5.1 mL/min/kg | 1 L/kg | 186 min |
| O=C(O)[C@@H]1C[C@@H](C2CCCCC2)CN1C(=O)CP(=O)(O)CCCCc1ccccc1 [FOSINOPRILAT] | 6.8 h | 0.32 mL/min/kg | 0.13 L/kg | 564 min |
| CC[C@]1(O)C[C@H]2CN(CCc3c([nH]c4ccccc34)[C@@](C(=O)OC)(c3cc4c(cc3OC)N(C=O)[C@H]3[C@@](O)(C(=O)OC)[C@H](OC(C)=O)[C@]5(CC)C=CCN6CC[C@]43[C@@H]65)C2)C1 [VINCRISTINE] | 20 h | 2 mL/min/kg | 2.4 L/kg | 1380 min |
| CC1(C)S[C@@H]2[C@H](NC(=O)[C@H](N)c3ccccc3)C(=O)N2[C@H]1C(=O)O [AMPICILLIN] | 1.3 h | 2.8 mL/min/kg | 0.22 L/kg | 84 min |
| COc1ccc(Cc2nccc3cc(OC)c(OC)cc23)cc1OC [PAPAVERINE] | 1.4 h | 11 mL/min/kg | 0.95 L/kg | 108 min |
| Cc1ccsc1C(=CCCN1CCC[C@@H](C(=O)O)C1)c1sccc1C [TIAGABINE] | 12 h | 1.6 mL/min/kg | 1.1 L/kg | 600 min |
| CCC#CC[C@H](C)[C@H](O)C#C[C@@H]1[C@H]2C/C(=C/COCC(=O)O)C[C@H]2C[C@H]1O [CICAPROST] | 0.35 h | 3.8 mL/min/kg | 0.08 L/kg | 66 min |
| CCCC1O[C@@H]2C[C@H]3[C@@H]4CCC5=CC(=O)C=C[C@]5(C)[C@H]4[C@@H](O)C[C@]3(C)[C@]2(C(=O)CO)O1 (stereo not given in full) [BUDESONIDE] | 3.2 h | 20 mL/min/kg | 3.9 L/kg | 168 min |
| CN1C(=O)[C@H](O)C[C@H]1c1cccnc1 | 7.9 h | 1.8 mL/min/kg | 0.85 L/kg | 354 min |
| Clc1cccc(N2CCNCC2)c1 [CHLOROPHENYLPIPERAZINE] | 7 h | 6.1 mL/min/kg | 2.5 L/kg | 282 min |
| CCCCN1CCCCC1C(=O)Nc1c(C)cccc1C (stereo not given) [BUPIVACAINE] | 3.3 h | 4.3 mL/min/kg | 0.84 L/kg | 186 min |
| Cn1c(=O)c2c(ncn2CC(O)CO)n(C)c1=O (stereo not given) [DYPHYLLINE] | 1.5 h | 4.8 mL/min/kg | 0.42 L/kg | 102 min |
| CCCc1nc2c(C)cc(-c3nc4ccccc4n3C)cc2n1Cc1ccc(-c2ccccc2C(=O)O)cc1 | 11 h | 8.4 mL/min/kg | 5.3 L/kg | 1200 min |
| COc1cc2c(cc1OC)CN(c1cc(N)c3cc(OC)c(OC)cc3n1)CC2 [ABANOQUIL] | 7.6 h | 14 mL/min/kg | 6.3 L/kg | 354 min |
